Measurements from patent US7378121B2, “Use of ferulic acid amides as flavor compounds” (Symrise GmbH & Co. KG, priority 2001, dated 2008).

Columns and labels:
[1] = Tasting of the pungent compounds in 11% strength by weight sugar solution (Example 1); format: in vivo, human; conditions: approx. 5 ml swallowed, 8 testers
Experimental: The substance, under test, was dissolved in ethanol and the ethanolic solution was then diluted with an 11% strength by weight sugar solution (final concentration: c). For tasting, in each case approximately 5 ml of the sugar solution was swallowed. If the threshold value of the substance was known, a value just above the threshold value is chosen for the tasting. A group of 8 testers tasted the solutions.

[2] = in vivo; cited from earlier work
[3] = with frequent use and overdose; cited from earlier work
mouse = conditions: cited from earlier work
[4] = Test of the combined action of grains of paradise extract and trans-feruloylmethoxytyramine in model system A; format: in vivo, human; conditions: 0.02% by weight solution (10% by weight EtOH) in model system A
Experimental: (§1) The grains of paradise extract used below was prepared by stirring 800 g of ground grains of paradise with 4 kg of ethanol (96% by volume). After filtration the filtrate was concentrated to 40 g and treated with steam at 100° C. and 300 mbar. The extract was made up to 80 g with ethanol (96% by volume).
(§2) As commercially conventional model systems, a liqueur base of 10% by volume and a liqueur base of 5.5% by volume were selected.
Then, to model system A the solution of a grains of paradise extract (10% by weight in ethanol) was added at concentrations of 0.1 to 0.2% by weight, based on the total weight of the model system, and a solution of trans-feruloylmethoxytyramine (10% by weight in ethanol) at a concentration of 0.01 to 0.02% by weight, based on the total weight of the model system. Using a taste-testing group of 8 people, again the effect of grains of paradise extract addition and of trans-feruloylmethoxytyramine addition on the sensory profile were tested. In addition, the combined action was tested.

[5] = Sensory assessment of the pungency of liqueur base model system A (10% by volume) with additions; format: in vivo, human; conditions: 1% by weight of solution (1% by weight in EtOH) added to model system A
Experimental: as §1, §2
To the model system A were then added the solution of the extract of grains of paradise (1% by weight in ethanol (EtOH)) at concentrations of 1 to 3% by weight, based on the total weight of the model system, and a solution of trans-feruloylmethoxytyramine (1% by weight in ethanol) at a concentration of 1% by weight, based on the total weight of the model system. Using a taste-testing group of 8 people, the effect of grains of paradise extract addition and trans-feruloylmethoxytyramine addition on the sensory profile were then tested. The sensory assessment was made on a scale of 1 (weak) to 5 (strong).

[6] = Gelled fruits having elderberry flavor, flavor intensifier test; format: in vivo, human; conditions: elderberry flavor 0.07% by weight
From the text: As commercially conventional model system, flavor combinations in gelled fruits having elderberry flavor were used: […]

**Q.** Which Sensory profile ([1]; c=1 ppm in 11% sugar solution) does the source give for COc1ccc(/C=C/C(=O)NCCc2ccc(OC)c(OC)c2)cc1OC [trans-rubenamine, N-[2-(3,4-dimethoxyphenyl)ethyl]-3-(3,4-dimethoxyphenyl)-(2E)-propenamide] here?
**A.** Its Sensory profile is “pleasant mild pungency, builds up slowly”.

**Q.** For O=C(/C=C/c1ccc(O)c(O)c1)NCCc1ccc(O)cc1 [trans-caffeoyltyramine, N-[2-(4-hydroxyphenyl)ethyl]-3-(3,4-dihydroxyphenyl)-(2E)-propenamide], which Sensory profile ([1]; c=1 ppm in 11% sugar solution) is on record?
**A.** Its Sensory profile is “pungency occurs after a delay, anaesthetizing pungency”.

**Q.** For COc1cc(/C=C/C(=O)NCc2ccc(O)c(OC)c2)ccc1O [ferulic acid N-vanillylamide, N-(4-hydroxy-3-methoxybenzyl)-4-hydroxy-3-methoxy-(2E)-propenamide], which “Pungency as described in the literature” value [2] is on record?
**A.** The value was “not described as pungent”.

**Q.** With COc1cc(CNC(=O)CCCC/C=C/C(C)C)ccc1O [capsaicin, N-(4-hydroxy-3-methoxybenzyl)-8-methyl-(6E)-nonenamide] as the compound, how does the Chronic damage [3] read?
**A.** Its Chronic damage is “chronic gastritis, kidney damage and liver damage”.

**Q.** And the “LD50 (mouse oral)” value (mouse)?
**A.** The value was 47 mg.

**Q.** For COc1cc(/C=C\C(=O)NCCc2ccc(O)c(OC)c2)ccc1O [cis-feruloylmethoxytyramine, N-[2-(4-hydroxy-3-methoxyphenyl)ethyl]-3-(4-hydroxy-3-methoxyphenyl)-(2Z)-propenamide], which Sensory profile ([1]; c=1 ppm in 11% sugar solution) is on record?
**A.** The Sensory profile was “pungency builds up slowly”.

**Q.** Which “Comments (sensory)” value [4] does the source give for COc1cc(/C=C/C(=O)NCCc2ccc(O)c(OC)c2)ccc1O [trans-feruloylmethoxytyramine, N-[2-(4-hydroxy-3-methoxyphenyl)ethyl]-3-(4-hydroxy-3-methoxyphenyl)-(2E)-propenamide] here?
**A.** Its value is “Mild, pungency very similar”.

**Q.** What about the Sensory description [5] of the same compound?
**A.** Its Sensory description is “Sweet, vanilla, fruity, less”.

**Q.** And the “Pungency (median), Scale 1-5” value ([5]; scale 1 (weak) to 5 (strong), 8 people)?
**A.** Its value is 2.

**Q.** What about the Sensory profile ([1]; c=10 ppm in 11% sugar solution) of the same compound?
**A.** The Sensory profile was “body, sweet, heat develops after delay, long-lasting, especially in the pharyngeal cavity (in the case of 4 participants), adherent, slightly anaesthetizing action”.

**Q.** And the Sensory profile ([1]; c=20 ppm in 11% sugar solution)?
**A.** The Sensory profile was “sweet, aniseed-like, benzaldehyde, heat develops after a delay (in the case of 8 participants), long-lasting, especially in the pharyngeal cavity, pleasant pepper pungency”.

**Q.** And the Sensory description ([6]; 0.015% by weight of solution (1% by weight in ethanol))?
**A.** Its Sensory description is “Effect only slightly perceptible”.

**Q.** What about the Sensory description ([6]; 0.03% by weight of solution (1% by weight in ethanol)) of the same compound?
**A.** Its Sensory description is “Effect below threshold, but pleasant”.

**Q.** And the Sensory description ([6]; 0.045% by weight of solution (1% by weight in ethanol))?
**A.** The Sensory description was “Flavor fresh and rounded”.
